Measurements as given in ChEMBL document CHEMBL4043309, “Computer-Aided Discovery and Characterization of Novel Ebola Virus Inhibitors” (J Med Chem, 2018).
Activity calls are given as the source filed them. The calls are words filed in the database; no cut-off is given here.

What was measured:
cells = format: cell-based, Ebolavirus; settings: Orthoebolavirus, HeLa, 4.5 h
in vitro [1] = settings: human, hela
in vitro [2] = settings: human, hela; remark: listed apart in the source
Ebolavirus = assay: Antiviral activity against Ebolavirus Mayinga infected in African green monkey Vero E6 cells after 72 hrs by eGFP assay; format: functional; settings: Orthoebolavirus, Vero C1008, 72 h
[3] = target: Cathepsin B (Homo sapiens) (UniProt P07858); assay: Inhibition of recombinant cathepsin B (unknown origin) at 10 uM using Ac-RR-AFC as substrate preincubated for 29 mins followed by substrate addition by fluorescence-based assay
[4] = target: Procathepsin L (Homo sapiens) (UniProt P07711); settings: at 10 µM
Chain of Procathepsin L (Homo sapiens) (P07711 114-333 limits assumed): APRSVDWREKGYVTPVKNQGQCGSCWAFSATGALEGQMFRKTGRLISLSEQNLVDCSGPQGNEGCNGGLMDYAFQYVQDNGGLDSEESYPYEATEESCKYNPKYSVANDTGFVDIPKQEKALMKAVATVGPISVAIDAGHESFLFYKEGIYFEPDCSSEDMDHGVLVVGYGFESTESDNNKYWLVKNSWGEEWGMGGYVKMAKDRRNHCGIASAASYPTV

SMILES | IC50 (cells) [µM] | selectivity ratio (in vitro [1]) | selectivity ratio (in vitro [2]) | other results
CC[C@]1(O)C[C@H]2CN(CCc3c([nH]c4ccccc34)[C@@](C(=O)OC)(c3cc4c(cc3OC)N(C=O)[C@H]3[C@@](O)(C(=O)OC)[C@H](OC(C)=O)[C@]5(CC)C=CCN6CC[C@]43[C@@H]65)C2)C1 [VINCRISTINE] | 0.141 |  |  | 
CCC(=C(c1ccc(O)cc1)c1ccc(OCCN(C)C)cc1)c1ccccc1 | 1.96 | 123 | 123 | 
CC(=O)N(C)C1(c2ccccc2)CCN(CCC[C@]2(c3ccc(Cl)c(Cl)c3)CCCN(C(=O)c3ccccc3)C2)CC1 [OSANETANT] | 9.65 | 52 | 52 | 
CNC1CCC(N(Cc2cccc(-c3ccncc3)c2)C(=O)c2sc3c(F)ccc(F)c3c2Cl)CC1 (stereo unspecified) | 7.67 | 65 | 65 | 
Cc1[nH]c2c(CN3CC(CO)C(CN4CCCC4)C3)cccc2c1C (stereo unspecified) | 6.09 | 82 | 82 | IC50 (Ebolavirus): 1 to 10 µM
CN(C)c1ccccc1CN1CCCN(Cc2ccccc2N(C)C)C1c1ccncc1 | 6.83 | 73 | 73 | inhibition [3]: Active; inhibition [4]: Active
CC[C@]1(O)C[C@@H]2CN(CCc3c([nH]c4ccccc34)[C@@](C(=O)OC)(c3cc4c(cc3OC)N(C)[C@H]3[C@@](O)(C(N)=O)[C@H](O)[C@]5(CC)C=CCN6CC[C@]43[C@@H]65)C2)C1 [VINDESINE] | 0.272 | 1840 | 1840 | 
COc1cc(Nc2c(C#N)cnc3cc(OCCCN4CCN(C)CC4)c(OC)cc23)c(Cl)cc1Cl [BOSUTINIB] | 3.85 |  |  | 
CN1CCN(CCCN2c3ccccc3Sc3ccc(S(=O)(=O)N(C)C)cc32)CC1 [THIOPROPERAZINE] | 4.32 |  |  | 
CC(C)(C)c1ccc(C(=O)CCCN2CCC(OC(c3ccccc3)c3ccccc3)CC2)cc1 |  |  |  | inhibition [4]: Active
CCC1=C[C@@H]2CN(C1)Cc1c([nH]c3ccccc13)[C@@](C(=O)OC)(c1cc3c(cc1OC)N(C)[C@H]1[C@@](O)(C(=O)OC)[C@H](OC(C)=O)[C@]4(CC)C=CCN5CC[C@]31[C@@H]54)C2 [VINORELBINE] | 0.066 |  |  | 
COc1cc2c(Oc3ccc4[nH]c(C)cc4c3F)ncnc2cc1OCCCN1CCCC1 [CEDIRANIB] | 7.67 | 65 | 65 | 
CCN(CC)CCCN(c1ccccc1)C1Cc2ccccc2C1 [APRINDINE] | 7.69 |  |  | 
COCC(=O)O[C@]1(CCN(C)CCCc2nc3ccccc3[nH]2)CCc2cc(F)ccc2[C@@H]1C(C)C [MIBEFRADIL] | 4.32 |  |  | 
CN1[C@@H]2CC[C@H]1C[C@@H](OC1c3ccccc3CCc3ccccc31)C2 [DEPTROPINE] | 6.58 | 76 | 76 | inhibition [4]: Active
COc1ccc2cc1Oc1ccc(cc1)C[C@H]1c3cc(c(OC)cc3CCN1C)Oc1c(OC)c(OC)cc3c1[C@H](C2)N(C)CC3 [FANCHININ] | 2.16 | 22 | 22 | 
CCCCc1oc2ccc(NS(C)(=O)=O)cc2c1C(=O)c1ccc(OCCCN(CCCC)CCCC)cc1 [DRONEDARONE] | 2.2 |  |  | 
Cc1ccc(CN2CCCN(C)C3(CCN(C)CC3)C2)cc1C | 6.83 | 73 | 73 | IC50 (Ebolavirus): 1 to 10 µM
CC/C(=C(\c1ccc(O)cc1)c1ccc(OCCNC)cc1)c1ccccc1 [ENDOXIFEN] | 3.05 | 164 | 164 | 
COc1cc2nc(N3CCCN(C)CC3)nc(NC3CCN(Cc4ccccc4)CC3)c2cc1OC | 0.966 | 45 | 45 | IC50 (Ebolavirus): 1 to 10 µM
COc1ccc2cc1Oc1ccc(cc1)C[C@H]1c3c(cc4c(c3Oc3cc5c(cc3OC)CCN(C)[C@@H]5C2)OCO4)CCN1C [CEPHARANTHINE] | 1.53 |  |  | 
Nc1ncnc2c1c(-c1cccc(OCc3ccccc3)c1)cn2[C@H]1C[C@H](CN2CCCC2)C1 | 3.05 | 13 | 13 | IC50 (Ebolavirus): 1 to 10 µM
CC[C@]1(O)C[C@@H]2CN(CCc3c([nH]c4ccccc34)[C@@](C(=O)OC)(c3cc4c(cc3OC)N(C)[C@H]3[C@@](O)(C(=O)OC)[C@H](OC(C)=O)[C@]5(CC)C=CCN6CC[C@]43[C@@H]65)C2)C1 [VINBLASTINE] |  |  |  | EC50 (cells): 0.048 µM
